From patent publication US20210106566A1, “PHARMACEUTICAL COMPOSITION FOR TREATING AND/OR PREVENTING PERIPHERAL NEUROPATHY OR SPINAL CORD INJURY” (NATIONAL UNIVERSITY CORPORATION NAGOYA UNIVERSITY, priority 2015, published 2021)

Assays:
[1] = system: NSC34 cells; experiment: Screening of neurite length in NSC34 cells; format: cell-based, mouse; conditions: dose dependency, FIG. 1
Description: The cells were seeded in DMEM/F12 differentiation medium (Invitrogen) supplemented with 1% FBS and […] doxycycline in a 96-well plate at 1.6×10^3 cells/cm^2 to induce the expression of GFP. […] Subsequently, cell nuclei were stained with Hoechst 33342 (1:100,000, Sigma Aldrich). Sixteen images per well were acquired on ArrayScan VTI HCS Reader (Thermo Scientific Cellomics). The average of neurite length in each well was automatically determined using Neuronal Profiling v4.0 BioApplication (Thermo Scientific Cellomics).

[2] = system: primary motor neurons; experiment: Time-lapse imaging of axonal growth; format: cell-based, mouse
Description: Primary cultured motor neurons were seeded in a 96-well plate at 6.0×10^3 cells/well in Sumilon neuron culture medium to induce neurite outgrowth. Phase-contrast images were taken every 8 hours for 3 days on IncuCyte ZOOM Live Cell Imaging System (Essen Bioscience). The neurite length was automatically analyzed with NeuroTrack software (IncuCyte).

[3] = system: primary motor neurons; experiment: MTS assay of cell survival under oxidative stress (hydrogen peroxide); format: cell-based, mouse; conditions: zonisamide 1 hour before 100 μmol/L hydrogen peroxide for 24 hours; dose-dependent
Description: Cell survival rate was assessed by MTS assay (CellTiter 96 Aqueous One Solution Cell Proliferation Assay, Promega), which measured the activity of mitochondrial reductase. Primary cultured motor neurons were cultured in Sumilon neuron culture medium for 24 hours, and the medium was then exchanged to DMEM/F12 supplemented with 0.5% FBS and cultured for 24 hours. Zonisamide was added at various concentrations for 1 hour and 100 μmol/L hydrogen peroxide was then added for 24 hours. The cells were incubated with MTS reagent for 2 hours. MTS signal was quantified on a microplate reader (PowerScan HT, DS PharmaBiomedical). The group of cells treated without hydrogen peroxide was used as a control for evaluating MTS signal.

[4] = system: Bdnf, Ngf, Ntf4, Ntrk1, Ntrk2, Map2, Mapt, and Gap43; experiment: Real-time RT-PCR of genes associated with neurite outgrowth in primary motor neurons; format: cell-based, mouse
Excerpt: Total RNA was isolated, using Trizol (Thermo Fisher Scientific), from primary motor neurons cultured with 0, 1, or 10 μmol/L zonisamide. Similarly, total RNA was isolated from sciatic nerve segments with a length of 3 mm or from tibialis anterior muscle. Single-stranded cDNA was synthesized using ReverTra Ace (Toyobo). The mRNA expression levels of Bdnf, Ngf, Ntf4, Ntrk1, Ntrk2, Map2, Mapt, and Gap43 were quantified using LightCycler 480 Real-Time PCR (Roche) and SYBR Green (Takara). The mRNA levels were normalized with the expression level of Gapdh.

[5] = system: Chrne, Colq, and Rapsn; experiment: Mouse sciatic nerve autologous transplantation model: mRNA in gastrocnemius muscle; format: in vivo; conditions: 8 weeks after surgery, 30 mg/kg/day
Excerpt: Adult male C57BL/6J mice (8 weeks old; 19.5-22.0 g) were purchased from Charles River. The mice were anesthetized with isoflurane and underwent gluteal muscle incision under a sterile condition to expose the sciatic nerve in the left leg. The sciatic nerve was cut at the following two sites (1) and (2): (1) the site 3 mm distal to the first bifurcation of biceps femoris (hereinafter referred to as proximal transection site) (2) the site 3 mm distal to the proximal transection site (hereinafter referred to as distal transection site) The excised nerve segment with a length of 3 mm was confirmed to be completely cut at the two sites. The perineurium was sutured with nylon thread (10-0 black) at the proximal transection site and the distal transection site under a microscope. The remaining thread was used as a marker for finding the nerve transection site in the sacrifice of the mice. In order to reduce DMSO toxicity, a solution of 60 mg/mL zonisamide in 100% DMSO was prepared and the solution was diluted in olive oil to give a solution of 3 mg/mL zonisamide in 5% DMSO. The control solution (5% DMSO) or zonisamide (3 mg/mL×about 0.2 mL) at 30 mg/kg/day was administered to the stomach using a disposable probe needle (flexible type, Fuchigami) once a day for 1 to 8 weeks from the end of surgery until sacrifice. Myelin sheath formation in the sciatic nerve was analyzed in six mice in each group. One week after the sciatic nerve autologous transplantation, the sciatic nerve was transected at “the proximal transection site” and “the site 3 mm distal to the distal transection site” to excise a nerve segment with a length of 6 mm. […] The number and area of myelinated axons in the sciatic nerve were manually measured using ImageJ software in a blinded fashion. […] The mRNA expression levels of Bdnf, Ngf, Ntf4, Ntrk1, Ntrk2, Map2, Mapt, Gap43, Chrne, Colq, and Rapsn were quantified in a manner similar to Example 5.

[6] = 2 and 3 days after zonisamide addition

NS(=O)(=O)Cc1noc2ccccc12 [Zonisamide, 3-sulfamoylmethyl-1,2-benzisoxazole]
axonal growth (average neurite length) in NSC34 cells [1]: dose-dependent axonal growth
neurite outgrowth effect, time-lapse imaging ([2]; forty hours after zonisamide administration, FIG. 3): neurite outgrowth effect was observed
neurite outgrowth effect, 10 μmol/L versus 1 μmol/L ([2]; throughout the observation period (3 days)): higher in the 10 μmol/L zonisamide administration group than in the 1 μmol/L zonisamide administration group
number of living cells (MTS signal) [3]: significantly increased
mRNA level of GAP43 [4]: not increased until day 3
mRNA level of MAP2 [4]: not increased until day 3
mRNA level of Mapt [4]: not increased until day 3
mRNA level of Ntrk1 [4]: increased
mRNA level of Ntrk2 [4]: increased
mRNA level of BDNF [4, 6]: increased
mRNA level of NGF [4, 6]: increased
mRNA level of NTF4 [4, 6]: increased
expression level of Chrne [5]: increased
expression level of Colq [5]: increased
expression level of Rapsn [5]: increased
